Measurements published in patent US20170119851A1, “METHODS OF TREATING ANOREXIA” (NOVARTIS AG, priority 2014, published 2017).
No end group written: not given here.

Assays:
[1] = in vivo; settings: male, Sprague-Dawley, rat, plasma, iv, 10 nanomoles per rat
Description: C) In Vivo Assay Description:
10 nanomoles of conjugate was dissolved in 300 L of PBS (Phosphate buffered saline) to form Dosing solution. Dosing solution (300 M) was administered intravenously to male Sprague-Dawley rats via lateral tail vein (corresponding to a dose 10 nanomoles per rat). Blood was collected via tail snip at prescribed times after dosing and immediately placed on wet ice. These samples were centrifuged at 4 C, with supernatant plasma transferred to a fresh tube for analysis.
For assay, intermediates were diluted to a top standard concentration of 2500 pg/mL and then diluted 2-fold serially to 16 points including a zero dose standard in ELISA sample diluent with bovine serum albumin (BSA).
Plasma samples were diluted 10-fold and then 5-fold serially out to 31,250-fold in ELISA sample diluent with BSA.
Plates were aspirated and blocked with a milk-based blocker at 90 uL/well for 2 hours at RT. All further incubations were carried out at 30 uL/well. Plates were aspirated again and samples and standards were added to the wells for 2 hours at RT. […] The plates were washed again and a HRP-labeled streptavidin reagent was added to the wells for 30 minutes at RT. Plates were washed a final time and a chemiluminescent substrate was added to all wells and plates were read immediately on a Spectramx M5 for light output.
Raw data was organized and analyzed for basic PK parameters.

[2] = biological target: T1, MC3R (Homo sapiens, UniProt P41968); test: MC3 cAMP assay, HEK293/MC3R stable cell line (antagonist protocol); format: cell-based; settings: HEK293/MC3R cells, antagonist protocol against NDP-α-MSH EC80
T1 construct: expressed in transfected cells; host or cells: HEK293
T1 sequence (P41968 whole entry, species assumed): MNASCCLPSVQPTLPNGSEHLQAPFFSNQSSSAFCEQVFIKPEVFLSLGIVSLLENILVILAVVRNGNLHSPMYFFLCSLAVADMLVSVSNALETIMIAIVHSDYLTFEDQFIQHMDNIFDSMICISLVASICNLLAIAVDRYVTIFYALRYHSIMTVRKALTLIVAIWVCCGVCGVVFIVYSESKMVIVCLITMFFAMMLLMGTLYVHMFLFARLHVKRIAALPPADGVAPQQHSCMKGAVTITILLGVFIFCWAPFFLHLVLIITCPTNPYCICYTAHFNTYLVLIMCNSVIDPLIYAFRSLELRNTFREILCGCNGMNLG
Description: Cells: HEK293/MC3R stable cell line Complete medium: DMEM/F12 1:1 (Gibco, Cat. No. 11039) • 10% FBS (Heat inactivated, Gibco, Cat. No. 10082)× • 200 μg/mL Geneticin (Gibco, Cat. No. 10131) • 2 mM L-glutamine (GIBCO, Cat No. 25030) Flask: 150 cm^2 tissue culture treated flask (Corning, Cat. No. 430825).
• I. Aspirate conditioned medium • II. Wash with 2.5 mL of DPBS (Gibco, Cat. No. 14190) • III. Add 2 mL of 0.25% Trypsin-EDTA (Gibco, Cat. No. 25200-056) • IV. Leave the flask for few minutes in incubator, tap the flask a few time to detach cells. • V. Add 10 mL of the complete medium to stop Trypsin-EDTA treatment and mix it well by pipetting softly a few times to re-suspend clumping cells • VI. Transfer 1.5 ml of cells into a new 150 cm flask containing 20 ml of complete media • VII. Transfer the remaining suspension into a 50 mL centrifuge tube • VIII. Spin down at 1200 rpm for 4 mins. Aspirate supernatant • IX. Add 6 mL of the assay buffer to the tube and re-suspend the cells by softly pipetting • X. Transfer 0.5 mL of the suspension into a sample vial for Vi-cell and add another 0.5 ml of PBS. • XI. Count cell number by using a Vi-cell *Record cell density and viability every time • i. Plate cells at 4K/well in 10 ul/well of assay buffer containing IBMX. • ii. Leave the plate in incubator for ˜30 mins before assay is started on suspension cells. […]

[3] = biological target: T2, MC4R (Homo sapiens, UniProt P32245); test: HTRF cAMP assay, HEK293/MC4R stable cell line; format: cell-based; settings: HEK293/MC4R cells, titration against NDP-aMSH
T2 construct: expressed in transfected cells; host or cells: HEK293
T2 sequence (P32245 whole entry, species assumed): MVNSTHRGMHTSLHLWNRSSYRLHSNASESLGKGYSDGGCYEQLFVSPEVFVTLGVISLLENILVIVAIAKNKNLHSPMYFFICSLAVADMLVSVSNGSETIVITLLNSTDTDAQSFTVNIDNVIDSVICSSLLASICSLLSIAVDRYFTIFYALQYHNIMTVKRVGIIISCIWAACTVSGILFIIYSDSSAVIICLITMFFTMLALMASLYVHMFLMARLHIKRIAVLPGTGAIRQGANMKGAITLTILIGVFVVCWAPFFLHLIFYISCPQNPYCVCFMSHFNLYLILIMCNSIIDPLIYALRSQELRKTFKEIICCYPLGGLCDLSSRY
Description: A) HTRF cAMP Assay Protocol:
• Flash spindown the 384 well plate at 1200 RPM • Incubated the cells for 15 minutes at an ambient temperature • Add 10 μL of the following reagents into each well based on your sample alignment
• Flash spindown the 384 well plate at 1200 RPM • Incubate the cells for an additional 30 minutes at an ambient temperature • *This incubation time is not so strict. +/−5 min should be OK according to assay development data. • Add 10 μL of cAMP-d2 (diluted 1:4 in the lysis buffer provided in the kit) • *Important!! For Negative control, not cAMP-d2, but just the lysis buffer • Add 10 μL of anti-cAMP Cryptate (diluted 1:4 in the lysis buffer provided in the kit) • Flash spindown at 1200 RPM. • Incubate the assay plate for 45-60 min at an ambient temperature. • Transfer […] of each sample to a tissue culture treated white polystyrene 384-well assay plate (Corning, Cat. No. 3572) • Flash spindown at 1200 RPM. • Measure the fluorescence with a Molecular device M5 or M5e with the following setting.

[4] = system: lean Sprague Dawley (SD) rats; test: Food intake after intranasal AgRP in lean rats; format: in vivo
Description: The purpose of the following study was to determine if intranasal—(IN) administered AgRP would stimulate food intake in lean Sprague Dawley (SD) rats.
8-12 week-old male SD rats were housed one per cage with a standard chow diet and normal light cycle.
One and two days prior to dosing, 24 h food intake and body weight were measured. Animals were grouped based on body weight and food intake. […] Animals were actively sniffing when compound was administered. After dosing, rats were returned to their home cages. A pre-weighed amount of food was given to the animals after dosing. Food weight was recorded at 4 and 24 hours post dose.
All data were analyzed using an unpaired t-test comparing saline and AgRP. A p value of <0.05 or lower was taken to be statistically significant. All data were analyzed and plotted using GraphPad Prism6 software (San Diego, Calif.).

[5] = system: C57BL mice; test: Food intake after subcutaneous (SC) AgRP in mice; format: in vivo; settings: 57 μg AgRP
Description: One day prior to treatment, 4-h food intake was measured and animals grouped to match group means of food intake. On the day of the study, animals were dosed via SC injection between 10:30 to 11:00 am. Pre-weighed food was provided to the mice prior to the dark cycle (11:00 am). At 4 and 24 h post dose food intake was measured.
All data were analyzed using an unpaired t-test comparing PBS and AgRP in saline. A p value of <0.05 or lower was taken to be statistically significant. All data were analyzed and plotted using GraphPad Prism6 software (San Diego, Calif.).

[6] = in vivo; settings: male, C57BL, mouse, plasma, 57 ug
Description: Male C57BL mice were housed one per cage with normal chow diet and housed in normal light cycle (light on 6:00-18:00).
10 min prior to the treatment, tail blood samples were taken and plasma (10 μl) was obtained. […] After being dosed, the mice remained in the isoflurane chamber for 2 min before placed back in their home cages. […] Tail blood samples were taken at 2, 5, 10, 30 min and 1, 2, 4 and 24 h post dose. Plasma samples were aliquoted and stored at −80° C. until analysis.

[7] = system: C57BL mice; test: Food intake after intranasal (IN) AgRP in mice; format: in vivo; settings: 57 μg AgRP in saline
Description: One day prior to treatment, 4-h food intake was measured and animals grouped to match group means of food intake. On the day of the study, food was removed at 9:00 am. […] After dosing, the mice remained in the isoflurane chamber in a supine position for 3 min before being returned to their cages. A pre-weighed amount of food was given to the animals before the dark cycle. Food weight was recorded at 4 and 24 hours post dose.
All data were analyzed using an unpaired t-test comparing saline and AgRP in saline. A p value of <0.05 or lower was taken to be statistically significant. All data were analyzed and plotted using GraphPad Prism6 software (San Diego, Calif.).

[8] = system: MC3R and MC4R; settings: Jackson et al., Biochemistry 41, 7565-7572; cited from earlier work
[9] = biological target: T2, MC4R; settings: Jackson et al., Biochemistry 41, 7565-7572; cited from earlier work
[10] = biological target: T1, MC3R; settings: Jackson et al., Biochemistry 41, 7565-7572; cited from earlier work

CCCCCCCCCCCC(CCCCCCCCCCC(=O)O)(C(=O)O)C(=O)NCCOCCOCCOCCOCCOCCOCCOCCOCCOCCOCCOCCOCCOCCOCCOCCOCCOCCOCCOCCOCCOCCOCCOCCOCCC(=O)N[C@@H](CO)C(=O)N[C@@H](CO)C(=O)N[C@@H](CCCNC(=N)N)C(=O)N[C@@H](CCCNC(=N)N)C(=O)N[C@H]1CSSC[C@@H]2NC(=O)[C@@H]3CSSC[C@@H]4NC(=O)[C@H](Cc5ccc(O)cc5)NC(=O)[C@@H]5CSSC[C@H](NC(=O)[C@H](Cc6ccc(O)cc6)NC(=O)[C@H](CSSC[C@H](NC(=O)[C@H](CO)NC(=O)[C@H](CCC(=O)O)NC(=O)[C@H](Cc6c[nH]cn6)NC(=O)[C@H](CC(C)C)NC(=O)[C@H](CCCNC(=N)N)NC(=O)[C@H](C(C)C)NC1=O)C(=O)N[C@@H](CC(C)C)C(=O)NCC(=O)N[C@@H](CCC(N)=O)C(=O)N[C@@H](CCC(N)=O)C(=O)N[C@@H](C(C)C)C(=O)N1CCC[C@H]1C(=O)N3)NC(=O)[C@H]([C@@H](C)O)NC(=O)[C@H](C)NC(=O)[C@H](CSSC[C@@H](C(=O)N[C@@H](CO)C(=O)N[C@@H](CCCNC(=N)N)C(=O)N[C@H](C(=O)O)[C@@H](C)O)NC(=O)[C@@H]1CCCN1C(=O)[C@H](CC(N)=O)NC(=O)[C@H](CCSC)NC(=O)[C@H](C)NC(=O)[C@H]([C@@H](C)O)NC(=O)CNC(=O)[C@H](CC(C)C)NC(=O)[C@H](CCCCN)NC(=O)[C@H](CCCNC(=N)N)NC4=O)NC(=O)[C@@H]1CCCN1C(=O)[C@H](CC(=O)O)NC2=O)C(=O)N[C@@H](CCCNC(=N)N)C(=O)N[C@@H](Cc1ccccc1)C(=O)N[C@@H](Cc1ccccc1)C(=O)N[C@@H](CC(N)=O)C(=O)N[C@@H](C)C(=O)N[C@@H](Cc1ccccc1)C(=O)N5 (some centres unmarked) [Example 5A]
half-life [1]: 20 h
EC50 [2]: 7 nM
EC50 [3]: 18 nM

CSCC[C@@H]1NC(=O)[C@H](C)NC(=O)[C@H]([C@@H](C)O)NC(=O)CNC(=O)[C@H](CC(C)C)NC(=O)[C@H](CCCCN)NC(=O)[C@H](CCCNC(=N)N)NC(=O)[C@@H]2CSSC[C@@H]3NC(=O)[C@@H]4CCCN4C(=O)[C@H](C(C)C)NC(=O)[C@H](CCC(N)=O)NC(=O)[C@H](CCC(N)=O)NC(=O)CNC(=O)[C@H](CC(C)C)NC(=O)[C@@H]4CSSC[C@H](NC(=O)[C@H]([C@@H](C)O)NC(=O)[C@H](C)NC(=O)[C@H](CSSC[C@@H](C(=O)N[C@@H](CO)C(=O)N[C@@H](CCCNC(=N)N)C(=O)N[C@H](C(=O)O)[C@@H](C)O)NC(=O)[C@@H]5CCCN5C(=O)[C@H](CC(N)=O)NC1=O)NC(=O)[C@@H]1CCCN1C(=O)[C@H](CC(=O)O)NC(=O)[C@H](CSSC[C@H](NC(=O)[C@H](CCCNC(=N)N)NC(=O)[C@H](CCCNC(=N)N)NC(=O)[C@H](CO)NC(=O)[C@@H](N)CO)C(=O)N[C@@H](C(C)C)C(=O)N[C@@H](CCCNC(=N)N)C(=O)N[C@@H](CC(C)C)C(=O)N[C@@H](Cc1c[nH]cn1)C(=O)N[C@@H](CCC(=O)O)C(=O)N[C@@H](CO)C(=O)N4)NC3=O)C(=O)N[C@@H](Cc1ccc(O)cc1)C(=O)N[C@H]1CSSC[C@H](NC(=O)[C@H](Cc3ccccc3)NC(=O)[C@H](C)NC(=O)[C@H](CC(N)=O)NC(=O)[C@H](Cc3ccccc3)NC(=O)[C@H](Cc3ccccc3)NC(=O)[C@H](CCCNC(=N)N)NC1=O)C(=O)N[C@@H](Cc1ccc(O)cc1)C(=O)N2 [AgRP, Agouti-Related Peptide]
food intake vs saline (unpaired t-test) ([4]; 57 μg AgRP, 24 h post dose): significant increase
food intake vs saline (unpaired t-test) ([4]; 171 μg AgRP, 4 h post dose): significant effect
food intake vs saline (unpaired t-test) ([4]; 171 μg AgRP, 24 h post dose): significant increase
food intake vs PBS (unpaired t-test) ([5]; 4 h post dose): did not resulted in a significant effect
food intake vs PBS (unpaired t-test) ([5]; 24 h post dose): did not resulted in a significant effect
Cmax ([6]; other: intranasal (IN)): 97.6 ng/mL
Tmax ([6]; other: intranasal (IN)): 1 h
Cmax ([6]; sc): 2810 ng/mL
Tmax ([6]; sc): 0.5 h
food intake vs saline (unpaired t-test) ([7]; 4 h post dose): significant effect
food intake vs saline (unpaired t-test) ([7]; 24 h post dose): significant effect

AgRP(87-132): shorter biologically active fragment of AgRP described in Jackson et al.
inverse agonism compared with AgRP(83-132) [8]: equivalent inverse agonism
MC4R affinity compared with AgRP(83-132) [9]: approximately the same
MC3R affinity compared with AgRP(83-132) [10]: approximately the same

CCCCCCCCCCCC(CCCCCCCCCCC(=O)O)(C(=O)O)C(=O)NCCOCCOCCOCCOCCOCCOCCOCCOCCOCCOCCOCCOCCOCCOCCOCCOCCOCCOCCOCCOCCOCCOCCOCCOCCC(=O)NCCCC[C@@H]1NC(=O)[C@H](CCCNC(=N)N)NC(=O)[C@@H]2CSSC[C@@H]3NC(=O)[C@@H]4CCCN4C(=O)[C@H](C(C)C)NC(=O)[C@H](CCC(N)=O)NC(=O)[C@H](CCC(N)=O)NC(=O)CNC(=O)[C@H](CC(C)C)NC(=O)[C@@H]4CSSC[C@H](NC(=O)[C@H]([C@@H](C)O)NC(=O)[C@H](C)NC(=O)[C@H](CSSC[C@@H](C(=O)N[C@@H](CO)C(=O)N[C@@H](CCCNC(=N)N)C(=O)N[C@H](C(=O)O)[C@@H](C)O)NC(=O)[C@@H]5CCCN5C(=O)[C@H](CC(N)=O)NC(=O)[C@H](CCSC)NC(=O)[C@H](C)NC(=O)[C@H]([C@@H](C)O)NC(=O)CNC(=O)[C@H](CC(C)C)NC1=O)NC(=O)[C@@H]1CCCN1C(=O)[C@H](CC(=O)O)NC(=O)[C@H](CSSC[C@H](NC(=O)[C@H](CCCNC(=N)N)NC(=O)[C@H](CCCNC(=N)N)NC(=O)[C@H](CO)NC(=O)[C@H](CO)NC(=O)CCOCCOCCOCCOCCOCCOCCOCCOCCOCCOCCOCCOCCOCCOCCOCCOCCOCCOCCOCCOCCOCCOCCOCCOCCNC(=O)C(CCCCCCCCCCC)(CCCCCCCCCCC(=O)O)C(=O)O)C(=O)N[C@@H](C(C)C)C(=O)N[C@@H](CCCNC(=N)N)C(=O)N[C@@H](CC(C)C)C(=O)N[C@@H](Cc1c[nH]cn1)C(=O)N[C@@H](CCC(=O)O)C(=O)N[C@@H](CO)C(=O)N4)NC3=O)C(=O)N[C@@H](Cc1ccc(O)cc1)C(=O)N[C@H]1CSSC[C@H](NC(=O)[C@H](Cc3ccccc3)NC(=O)[C@H](C)NC(=O)[C@H](CC(N)=O)NC(=O)[C@H](Cc3ccccc3)NC(=O)[C@H](Cc3ccccc3)NC(=O)[C@H](CCCNC(=N)N)NC1=O)C(=O)N[C@@H](Cc1ccc(O)cc1)C(=O)N2 (some centres unmarked) [Example 5B]
half-life [1]: 52 h
EC50 [2]: 65 nM
EC50 [3]: 167 nM

AgRP (87-120): shorter biologically active fragment of AgRP described in Jackson et al. (CVRLHESCLGQQVPCCDPCATCYCRFFNAFCYCR; also: disulfide pairing of this fragment not given here, 9 Cys (C105 partner C129 absent))
inverse agonism compared with AgRP(83-132) [8]: equivalent inverse agonism
MC4R affinity compared with AgRP(83-132) [9]: approximately the same
MC3R affinity compared with AgRP(83-132) [10]: approximately the same
